Measurements taken from patent publication EP4653437A2 (Innovo Therapeutics Inc., priority 2023, dated 2024).

Experiments:
[1] = biological target: T1, human 15-PGDH (Homo sapiens, UniProt P15428); test: Evaluation of 15-PGDH inhibitory activity (fluorescence enzyme assay, NAD+/PGE2); type: biochemical; settings: human 15-PGDH enzyme, fluorescence Vmax
T1 construct: purchased R&D System 5660-DH
T1 sequence (P15428 1-266): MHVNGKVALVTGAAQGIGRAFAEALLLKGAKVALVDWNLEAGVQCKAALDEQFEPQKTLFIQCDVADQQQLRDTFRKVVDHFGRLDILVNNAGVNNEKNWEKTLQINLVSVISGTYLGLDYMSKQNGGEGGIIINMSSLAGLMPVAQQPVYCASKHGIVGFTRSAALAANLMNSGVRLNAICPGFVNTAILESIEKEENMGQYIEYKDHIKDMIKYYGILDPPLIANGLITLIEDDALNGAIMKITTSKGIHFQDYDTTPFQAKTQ
Procedure: 15-PGDH inhibition activity of Example compounds was measured as follows. 6.7 ng of human 15-PGDH (R&D System# 5660-DH) enzyme (10 µL) was added to a black 96 well plate, 60 µL of buffer (50 mM Tris-HCl, pH 7.5, 0.01% Tween 20) was added, and 10 µL of 200 µM β-Nicotinamide adenine dinucleotide sodium salt (Sigma, Cat# N0632-5G) was added. 10 µL of (10x) compound solution in DMSO was added and reacted for 10 minutes at room temperature.

[2] = tested on: A549 cells; test: Measurement of PGE2-increasing activity in A549 cells (IL-1β stimulated, PGE2 quantified in supernatant); type: cell-based; settings: Homo sapiens, 24 h; concentration of 1 µM of each compound; IL-1β treated A549 cells; read-out: Increased PGE2 production in A549 cells
In short: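 PGE2 secreted into the supernatant was measured by immunoassay 24 h after treatment. Before treatment, A549 cells were cultured 24 h in 10% FBS F12K, washed, and placed in serum-free medium containing compound (DMSO 0.1% final) plus or minus IL-1β, incubated at 37 °C, 5% CO2.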

SMILES	IC50 [1] [nM]	fold induction at 1 µM [2]
O=C1NCc2ccc(-c3cccc4c(C(=O)N5CCCC(F)C5)cnn34)cc21 (stereo not shown) [Example 378, 6-(3-(3-fluoropiperidine-1-carbonyl)pyrazolo[1,5-a]pyridin-7-yl)isoindolin-1-one]	≤ 100	> 1.5
Cc1nnc(-c2ncc(-c3cccc4c(C(=O)N5CCCCC5)cnn34)cc2F)o1 [Example 379, [7-[5-fluoro-6-(5-methyl-1,3,4-oxadiazol-2-yl)-3-pyridyl]pyrazolo[1,5-a]pyridin-3-yl]-(1-piperidyl)methanone]	≤ 100	> 1.5
O=C(c1cnn2c(-c3cnc(-c4nnco4)c(F)c3)cccc12)N1CCCCC1 [Example 380, [7-[5-fluoro-6-(1,3,4-oxadiazol-2-yl)-3-pyridyl]pyrazolo[1,5-a]pyridin-3-yl]-(1-piperidyl)methanone]	≤ 100	> 1.5
Cc1noc(C)c1-c1ncc(-c2cccc3c(C(=O)N4CCCCC4)cnn23)cc1F [Example 381, [7-[6-(3,5-dimethylisoxazol-4-yl)-5-fluoro-3-pyridyl]pyrazolo[1,5-a]pyridin-3-yl]-(1-piperidyl)methanone]	≤ 100	> 1.5
O=C1NCc2ccc(-c3cccc4c(C(=O)N5CCCC(F)(F)C5)cnn34)cc21 [Example 382, 6-(3-(3,3-difluoropiperidine-1-carbonyl)pyrazolo[1,5-a]pyridin-7-yl)isoindolin-1-one]	≤ 100	> 1.5
O=C(c1cnn2c(-c3ccc(N4CCOC4=O)nc3)cccc12)N1CCCC(F)C1 (stereo not shown) [Example 383, 3-(5-(3-(3-fluoropiperidine-1-carbonyl)pyrazolo[1,5-a]pyridin-7-yl)pyridin-2-yl)oxazolidin-2-one]	≤ 100	> 1.5
O=C(c1cnn2c(-c3ccc(N4CCOC4=O)nc3)cccc12)N1CCCC(F)(F)C1 [Example 384, 3-(5-(3-(3,3-difluoropiperidine-1-carbonyl)pyrazolo[1,5-a]pyridin-7-yl)pyridin-2-yl)oxazolidin-2-one]	≤ 100	> 1.5
C[C@@H]1CCCN(C(=O)c2cnn3c(-c4ccc5c(c4)C(=O)NC5)cccc23)C1 [Example 385, (R)-6-(3-(3-methylpiperidine-1-carbonyl)pyrazolo[1,5-a]pyridin-7-yl)isoindolin-1-one]	≤ 100	> 1.5
C[C@H]1CCCN(C(=O)c2cnn3c(-c4ccc5c(c4)C(=O)NC5)cccc23)C1 [Example 386, (S)-6-(3-(3-methylpiperidine-1-carbonyl)pyrazolo[1,5-a]pyridin-7-yl)isoindolin-1-one]	≤ 100	> 1.5
CC1CCCN(C(=O)c2cnn3c(-c4ccc5c(c4)C(=O)NC5)cccc23)C1 (stereo not shown) [Example 387, 6-(3-(3-methylpiperidine-1-carbonyl)pyrazolo[1,5-a]pyridin-7-yl)isoindolin-1-one]	≤ 100	> 1.5
O=C(Cc1ccc(C(F)(F)F)nc1)Nc1cncc(-c2cccc3c(C(=O)N4CCCCC4)cnn23)c1 [Example 388, N-(5-(3-(piperidine-1-carbonyl)pyrazolo[1,5-a]pyridin-7-yl)pyridin-3-yl)-2-(6-(trifluoromethyl)pyridin-3-yl)acetamide]	≤ 100	> 1.5
O=C(Cc1ccccc1)Nc1cncc(-c2cccc3c(C(=O)N4CCCCC4)cnn23)c1 [Example 389, 2-phenyl-N-(5-(3-(piperidine-1-carbonyl)pyrazolo[1,5-a]pyridin-7-yl)pyridin-3-yl)acetamide]	≤ 100	> 1.5
O=C1NCc2ccc(-c3cccc4c(C(=O)N5CC6(CCC6)C5)cnn34)cc21 [Example 390, 6-(3-(2-azaspiro[3.3]heptane-2-carbonyl)pyrazolo[1,5-a]pyridin-7-yl)isoindolin-1-one]	≤ 100	> 1.5
O=C1NCc2ccc(-c3cccc4c(C(=O)N5CCC6(CCC6)C5)cnn34)cc21 [Example 391, 6-(3-(6-azaspiro[3.4]octane-6-carbonyl)pyrazolo[1,5-a]pyridin-7-yl)isoindolin-1-one]	≤ 100	> 1.5
O=C1NCc2ccc(-c3cccc4c(C(=O)N5CCC6(CCC6)CC5)cnn34)cc21 [Example 392, 6-(3-(7-azaspiro[3.5]nonane-7-carbonyl)pyrazolo[1,5-a]pyridin-7-yl)isoindolin-1-one]	≤ 100	> 1.5
CCC1CCCN(C(=O)c2cnn3c(-c4ccc5c(c4)C(=O)NC5)cccc23)C1 (stereo not shown) [Example 393, 6-(3-(3-ethylpiperidine-1-carbonyl)pyrazolo[1,5-a]pyridin-7-yl)isoindolin-1-one]	≤ 100	> 1.5
O=C(c1cnn2c(-c3cnc(-c4nnc(C(F)(F)F)o4)c(F)c3)cccc12)N1CCCCC1 [Example 394, [7-[5-fluoro-6-[5-(trifluoromethyl)-1,3,4-oxadiazol-2-yl]-3-pyridyl]pyrazolo[1,5-a]pyridin-3-yl]-(1-piperidyl)methanone]	≤ 100	> 1.5
O=C(c1cnn2c(-c3cnn(Cc4ncon4)c3)cccc12)N1CCCCC1 [Example 395, (7-(1-((1,2,4-oxadiazol-3-yl)methyl)-1H-pyrazol-4-yl)pyrazolo[1,5-a]pyridin-3-yl)(piperidin-1-yl)methanone]	≤ 100	> 1.5
O=C(c1cnn2c(-c3cnn(Cc4noc(=O)[nH]4)c3)cccc12)N1CCCCC1 [Example 396, 3-((4-(3-(piperidine-1-carbonyl)pyrazolo[1,5-a]pyridin-7-yl)-1H-pyrazol-1-yl)methyl)-1,2,4-oxadiazol-5(4H)-one]	≤ 100	> 1.5
O=C(c1cnn2c(-c3ccnc(-c4cnn(Cc5ncon5)c4)c3)cccc12)N1CCCCC1 [Example 397, (7-(2-(1-((1,2,4-oxadiazol-3-yl)methyl)-1H-pyrazol-4-yl)pyridin-4-yl)pyrazolo[1,5-a]pyridin-3-yl)(piperidin-1-yl)methanone]	≤ 100	> 1.5
O=C1NCc2ccc(-c3cccc4c(C(=O)N5CCCC(C(F)(F)F)C5)cnn34)cc21 (stereo not shown) [Example 398, 6-(3-(3-(trifluoromethyl)piperidine-1-carbonyl)pyrazolo[1,5-a]pyridin-7-yl)isoindolin-1-one]	≤ 100	> 1.5
Cc1noc(C)c1-c1ncc(-c2cccc3c(C(=O)N4CCCCC4)cnn23)cn1 [Example 399, [7-[2-(3,5-dimethylisoxazol-4-yl)pyrimidin-5-yl]pyrazolo[1,5-a]pyridin-3-yl]-(1-piperidyl)methanone]	≤ 100	> 1.5
CC(C)C1CCCN(C(=O)c2cnn3c(-c4ccc5c(c4)C(=O)NC5)cccc23)C1 (stereo not shown) [Example 400, 6-(3-(3-isopropylpiperidine-1-carbonyl)pyrazolo[1,5-a]pyridin-7-yl)isoindolin-1-one]	≤ 100	> 1.5
O=C1NCc2ccc(-c3cccc4c(C(=O)N5CC=CCC5)cnn34)cc21 [Example 401, 6-(3-(1,2,3,6-tetrahydropyridine-1-carbonyl)pyrazolo[1,5-a]pyridin-7-yl)isoindolin-1-one]	≤ 100	> 1.5
O=C(Cc1cncc(F)c1)Nc1cncc(-c2cccc3c(C(=O)N4CCCCC4)cnn23)c1 [Example 402, 2-(5-fluoropyridin-3-yl)-N-(5-(3-(piperidine-1-carbonyl)pyrazolo[1,5-a]pyridin-7-yl)pyridin-3-yl)acetamide]	≤ 100	> 1.5
O=C(Cc1cncnc1)Nc1cncc(-c2cccc3c(C(=O)N4CCCCC4)cnn23)c1 [Example 403, N-(5-(3-(piperidine-1-carbonyl)pyrazolo[1,5-a]pyridin-7-yl)pyridin-3-yl)-2-(pyrimidin-5-yl)acetamide]	≤ 100	> 1.5
O=C(c1cnn2c(-c3cnc(-c4nnc(C(F)F)[s+]4[O-])nc3)cccc12)N1CCCCC1 (stereo not shown) [Example 404, [7-[2-[5-(difluoromethyl)-1-oxo-1,3,4-thiadiazol-2-yl]pyrimidin-5-yl]pyrazolo[1,5-a]pyridin-3-yl]-(1-piperidyl)methanone]	≤ 100	> 1.5
O=C(COc1ccc(Cl)cc1)Nc1cncc(-c2cccc3c(C(=O)N4CCCCC4)cnn23)c1 [Example 406, 2-(4-chlorophenoxy)-N-(5-(3-(piperidine-1-carbonyl)pyrazolo[1,5-a]pyridin-7-yl)pyridin-3-yl)acetamide]	≤ 100	> 1.5
O=C(Cc1cncnc1)Nc1ccc(-c2cccc3c(C(=O)N4CCCCC4)cnn23)cn1 [Example 407, N-[5-[3-(piperidine-1-carbonyl)pyrazolo[1,5-a]pyridin-7-yl]-2-pyridyl]-2-pyrimidin-5-yl-acetamide]	≤ 100	> 1.5
